Measured values as given in patent US20150119410A1, “BIOMARKERS OF RESPONSE TO NAE INHIBITORS” (MILLENNIUM PHARMACEUTICALS, INC., priority 2011, published 2015).

Tests used:
Assay in all cases: Cell line panel 1 viability screen
Assay type in all cases: cell-based
[1] = system: MKN1; details: MKN1 (Stomach)
Experimental: (§1) To support clinical development and identify potential biomarkers of tumor sensitivity or resistance, two large cancer cell line panels (Panel 1, N=653 (McDermott et al. (2007) PNAS 104:19936-19941); Panel 2, N=240 (O'Day et al. (2010) Fourth AACR International Conference on Molecular Diagnostics in Cancer Therapeutic Development)) were treated with MLN4924 and cell viability data (IC50, EC50, and POC—Percentage of Control) were generated.
(§2) Panel 1 (McDermott et al., supra). The cell lines were exposed to three MLN4924 concentrations (20 nM, 200 nM, and 2 μM) for 72 hours. Viability, i.e., cell number, was quantified by measuring fluorescence of a cell-permeant nucleic acid stain. Mean of triplicate values for each sample were taken and compared to DMSO control to calculate percentage of control. In the results, control or no activity value is given a value of about 1, sensitivity is indicated by a value less than 1, with 0 as death of the entire cell population and resistance indicated by a value greater than 1. A continuum of viability values was obtained for each concentration, so some values were selected as cut-offs for final determination of sensitivity or resistance. For example, median POC values of less than the median value of all POC's recorded in the panel (<0.34) indicated sensitivity, values of 0.34 to 0.75 indicated borderline sensitivity, values greater than the 3rd quartile of all POC's in the panel (>0.75) insensitivity or resistance. […] Final judgment of cell line as sensitive, insensitive or resistant was determined by its viability at 2 μM.

[2] = system: ACHN; details: ACHN (kidney)
Experimental: as §1, §2

[3] = system: MDA-MB-468; details: MDA-MB-468 (breast)
Experimental: as §1, §2

[4] = system: NUGC-3; details: NUGC-3 (stomach)
Experimental: as §1, §2

[5] = system: SK-OV-3; details: Homo sapiens; SK-OV-3 (ovary); 2 μM MLN4924, 72 hours; DMSO control about 1
Experimental: as §1, §2

[6] = system: CAL-27; details: CAL-27 (upper aerodigestive tract)
Experimental: as §1, §2

[7] = system: CaR-1; details: CaR-1 (large_intestine)
Experimental: as §1, §2

[8] = system: BxPC-3; details: BxPC-3 (pancreas)
Experimental: as §1, §2

[9] = system: CFPAC-1; details: CFPAC-1 (pancreas)
Experimental: as §1, §2

[10] = system: KP-4; details: KP-4 (pancreas)
Experimental: as §1, §2

[11] = system: SW 1463
Experimental: as §1, §2

[12] = system: CAL-62; details: CAL-62 (thyroid)
Experimental: as §1, §2

[13] = system: HCT-15; details: Homo sapiens; HCT-15 (intestine); 2 μM MLN4924, 72 hours; DMSO control about 1
Experimental: as §1, §2

[14] = system: PANC-08-13; details: PANC-08-13 (pancreas)
Experimental: as §1, §2

[15] = system: SW1573; details: SW1573 (lung)
Experimental: as §1, §2

[16] = system: MIA-PaCa-2; details: MIA-PaCa-2 (pancreas)
Experimental: as §1, §2

[17] = system: S-117; details: S-117 (soft_tissue)
Experimental: as §1, §2

[18] = system: MDA-MB-231; details: MDA-MB-231 (breast)
Experimental: as §1, §2

[19] = system: T84; details: Homo sapiens; T84 (intestine); 2 μM MLN4924, 72 hours; DMSO control about 1
Experimental: as §1, §2

[20] = system: CAL-33; details: CAL-33 (upper aerodigestive tract)
Experimental: as §1, §2

[21] = system: HT29
Experimental: as §1, §2

[22] = system: SN12C; details: SN12C (kidney)
Experimental: as §1, §2

[23] = Homo sapiens, 2 μM MLN4924, 72 hours, DMSO control about 1

With `NS(=O)(=O)OC[C@@H]1C[C@@H](n2ccc3c(N[C@H]4CCc5ccccc54)ncnc32)C[C@@H]1O` [MLN4924, ((1S,2S,4R)-4-{4-[(1S)-2,3-dihydro-1H-inden-1-ylamino]-7H-pyrrolo[2,3-d]pyrimidin-7-yl}-2-hydroxycyclopentyl)methyl sulphamate] the viability at 2 µM ([1]; Homo sapiens, MKN-1, 2 μM MLN4924, 72 hours, DMSO control about 1) was 46.3%, the Phenotype ([1]; FBXW7 mutant) was “insensitive (values of 0.34 to 0.75 indicated borderline sensitivity)” and the Phenotype ([2]; NF2 mutant) was “sensitive (median POC values of less than the median value of all POC's recorded in the panel (<0.34) indicated sensitivity)”. The viability at 2 µM [2, 23] was 6.21%, the viability at 2 µM [3, 23] was 29.6% and the Phenotype ([3]; SMAD4 mutant) was “sensitive (median POC values of less than the median value of all POC's recorded in the panel (<0.34) indicated sensitivity)”. For the same compound, the viability at 2 µM [4, 23] was 9.8%, the Phenotype ([4]; NF2 mutant) was “sensitive (median POC values of less than the median value of all POC's recorded in the panel (<0.34) indicated sensitivity)” and the viability at 2 µM [5] was 39.7%. The Phenotype ([6]; SMAD4 mutant) was “sensitive (median POC values of less than the median value of all POC's recorded in the panel (<0.34) indicated sensitivity)”, the viability at 2 µM [6, 23] was 2.71% and the Phenotype ([7]; NF2 mutant) was “sensitive (median POC values of less than the median value of all POC's recorded in the panel (<0.34) indicated sensitivity)”. The viability at 2 µM [7, 23] was 32.4%, the Phenotype ([8]; SMAD4 mutant) was “insensitive (values of 0.34 to 0.75 indicated borderline sensitivity)” and the viability at 2 µM [8, 23] was 41.9%. For the same compound, the Phenotype ([9]; SMAD4 mutant) was “sensitive?”, the viability at 2 µM [9, 23] was 28.2% and the viability at 2 µM [10, 23] was 5.18%. The Phenotype ([10]; SMAD4 mutant) was “sensitive (median POC values of less than the median value of all POC's recorded in the panel (<0.34) indicated sensitivity)”, the viability at 2 µM ([11]; Homo sapiens, SW 1463 / SW1463 (intestine), 2 μM MLN4924, 72 hours, DMSO control about 1) was 89.6% and the Phenotype ([11]; SW1463 (Intestine), FBXW7 mutant) was “resistant (values greater than the 3rd quartile of all POC's in the panel (>0.75) insensitivity or resistance)”. For the same compound, the Phenotype ([12]; NF2 mutant) was “sensitive (median POC values of less than the median value of all POC's recorded in the panel (<0.34) indicated sensitivity)”, the viability at 2 µM [12, 23] was 6.76% and the viability at 2 µM [13] was 66.5%. For the same compound, the viability at 2 µM [14, 23] was 77.7%, the Phenotype ([14]; SMAD4 mutant) was “resistant (values greater than the 3rd quartile of all POC's in the panel (>0.75) insensitivity or resistance)” and the viability at 2 µM [15, 23] was 11.1%. For the same compound, the Phenotype ([15]; NF2 and SMAD4 mutant) was “sensitive (median POC values of less than the median value of all POC's recorded in the panel (<0.34) indicated sensitivity)”, the viability at 2 µM [16, 23] was 11.5% and the Phenotype ([16]; KDM6A mutant) was “sensitive (median POC values of less than the median value of all POC's recorded in the panel (<0.34) indicated sensitivity)”. For the same compound, the viability at 2 µM [17, 23] was 64.1%, the Phenotype ([17]; NF2 mutant) was “resistant (values greater than the 3rd quartile of all POC's in the panel (>0.75) insensitivity or resistance)” and the viability at 2 µM [18, 23] was 52.8%. For the same compound, the Phenotype ([18]; NF2 mutant) was “insensitive (values of 0.34 to 0.75 indicated borderline sensitivity)”, the viability at 2 µM [19] was 57.8% and the Phenotype ([20]; SMAD4 mutant) was “sensitive (median POC values of less than the median value of all POC's recorded in the panel (<0.34) indicated sensitivity)”. The viability at 2 µM [20, 23] was 14.4%, the Phenotype ([21]; HT-29 (large_intestine), SMAD4 mutant) was “insensitive (values of 0.34 to 0.75 indicated borderline sensitivity)” and the viability at 2 µM ([21]; Homo sapiens, HT29 / HT-29 (intestine), 2 μM MLN4924, 72 hours, DMSO control about 1) was 43.8%. For the same compound, the viability at 2 µM [22, 23] was 33.6% and the Phenotype ([22]; NF2 mutant) was “sensitive (median POC values of less than the median value of all POC's recorded in the panel (<0.34) indicated sensitivity)”.
